Test results published in patent US10696672B2 (Pliant Therapeutics, Inc., priority 2016, dated 2020).

target: recombinant human integrin αvβ6 (Homo sapiens (Human), UniProt P06756+P18564); assay: Solid phase integrin αvβ6 binding assay; details: plate-coated integrin; recombinant TGFβ1 LAP 0.67 ug/ml as ligand; 2 hours at 25° C.; read-out: αvβ6 Inhibition IC50 (nM) - range
Procedure: Example B1—Solid Phase Integrin αvβ6 Binding Assay
Microplates were coated with recombinant human integrin αvβ6 (2 ug/ml) in PBS (100 ul/well 25° C., overnight). The coating solution was removed, washed with wash buffer (0.05% Tween 20; 0.5 mM MnCl2; in 1×TBS). Plate was blocked with 200 ul/well of Block Buffer (1% BSA; 5% sucrose; 0.5 mM MnCl2; in 1×TBS) at 37° C. for 2 h. Dilutions of testing compounds and recombinant TGFβ1 LAP (0.67 ug/ml) in binding buffer (0.05% BSA; 2.5% sucrose; 0.5 mM MnCl2; in 1×TBS) were added. The plate was incubated for 2 hours at 25° C., washed, and incubated for 1 hour with Biotin-Anti-hLAP. Bound antibody was detected by peroxidase-conjugated streptavidin. The IC50 values for testing compounds were calculated by a four-parameter logistic regression.
The compounds tested were compound samples prepared according to procedures described in the Synthetic Examples section, with the stereochemical purity as indicated in the Examples indicated.

recombinant human integrin αvβ6, sequence (P06756 31-992): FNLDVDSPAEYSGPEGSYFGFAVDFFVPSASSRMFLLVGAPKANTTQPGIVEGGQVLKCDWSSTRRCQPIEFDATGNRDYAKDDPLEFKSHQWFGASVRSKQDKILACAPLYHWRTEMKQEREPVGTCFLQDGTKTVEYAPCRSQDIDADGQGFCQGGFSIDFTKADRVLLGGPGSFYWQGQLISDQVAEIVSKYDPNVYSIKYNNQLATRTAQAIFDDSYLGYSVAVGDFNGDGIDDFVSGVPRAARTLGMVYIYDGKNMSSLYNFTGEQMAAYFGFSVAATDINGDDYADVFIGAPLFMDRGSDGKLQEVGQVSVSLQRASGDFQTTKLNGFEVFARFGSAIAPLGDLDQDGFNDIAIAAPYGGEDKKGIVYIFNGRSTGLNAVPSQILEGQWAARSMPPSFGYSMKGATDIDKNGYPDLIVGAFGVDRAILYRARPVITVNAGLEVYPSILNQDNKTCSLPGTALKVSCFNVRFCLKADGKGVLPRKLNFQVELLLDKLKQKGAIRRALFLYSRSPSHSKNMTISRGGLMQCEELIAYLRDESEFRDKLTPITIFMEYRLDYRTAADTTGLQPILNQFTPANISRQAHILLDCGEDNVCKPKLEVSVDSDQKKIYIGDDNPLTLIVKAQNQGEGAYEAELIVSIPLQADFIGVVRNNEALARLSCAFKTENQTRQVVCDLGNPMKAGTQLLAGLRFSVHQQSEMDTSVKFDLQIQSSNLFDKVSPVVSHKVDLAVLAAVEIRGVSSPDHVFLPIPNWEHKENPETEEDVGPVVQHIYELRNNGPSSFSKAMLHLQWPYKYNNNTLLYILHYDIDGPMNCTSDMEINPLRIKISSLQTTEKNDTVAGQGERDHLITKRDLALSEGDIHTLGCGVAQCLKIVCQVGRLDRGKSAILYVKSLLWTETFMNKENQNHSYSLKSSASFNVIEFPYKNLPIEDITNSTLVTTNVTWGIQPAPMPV
recombinant human integrin αvβ6, sequence (P18564 22-707): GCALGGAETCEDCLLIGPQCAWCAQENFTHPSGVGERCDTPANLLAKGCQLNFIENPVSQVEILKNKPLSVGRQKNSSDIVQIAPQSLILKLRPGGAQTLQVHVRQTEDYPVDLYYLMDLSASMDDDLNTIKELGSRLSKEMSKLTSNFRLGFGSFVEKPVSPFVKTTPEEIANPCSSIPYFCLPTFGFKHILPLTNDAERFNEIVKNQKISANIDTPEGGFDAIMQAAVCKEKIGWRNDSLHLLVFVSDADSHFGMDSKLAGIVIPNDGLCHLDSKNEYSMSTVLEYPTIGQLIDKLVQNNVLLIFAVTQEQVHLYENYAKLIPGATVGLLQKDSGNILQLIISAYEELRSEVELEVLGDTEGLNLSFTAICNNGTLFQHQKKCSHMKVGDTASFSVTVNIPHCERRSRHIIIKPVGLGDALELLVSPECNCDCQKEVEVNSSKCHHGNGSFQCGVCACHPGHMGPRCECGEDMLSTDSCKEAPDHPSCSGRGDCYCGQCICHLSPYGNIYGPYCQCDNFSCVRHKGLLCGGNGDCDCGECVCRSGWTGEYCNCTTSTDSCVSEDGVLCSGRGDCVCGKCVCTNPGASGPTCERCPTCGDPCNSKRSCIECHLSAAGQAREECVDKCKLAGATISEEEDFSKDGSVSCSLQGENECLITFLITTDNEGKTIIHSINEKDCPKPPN

| IC50 | SMILES |
| --- | --- |
| 50 to 250 nM | CC(C)(C(=O)N[C@@H](CCN1CC(OCCc2ccc3c(n2)NCCC3)C1)C(=O)O)c1ccccc1 [Compound 120] |
| < 50 nM | O=C(N[C@H](CCN1CC[C@@H](CCc2ccc3c(n2)NCCC3)C1)C(=O)O)C1CCC(F)(F)CC1 [Compound 21c, (R)-2-(4,4-difluorocyclohexane-1-carboxamido)-4-((R)-3-(2-(5,6,7,8-tetrahydro-1,8-naphthyridin-2-yl)ethyl)pyrrolidin-1-yl)butanoic acid] |
| < 50 nM | Cn1cc(-c2cccc(C(=O)N[C@@H](CCN3CC[C@@H](CCc4ccc5c(n4)NCCC5)C3)C(=O)O)c2)cn1 [Compound 58] |
| 50 to 250 nM | O=C(N[C@@H](CCN1CCC[C@@](F)(CCc2ccc3c(n2)NCCC3)C1)C(=O)O)c1cccc(N2CCOCC2)c1 [Compound 96] |
| 50 to 250 nM | O=C(N[C@@H](CCN1CCC[C@@](F)(CCc2ccc3c(n2)NCCC3)C1)C(=O)O)c1cccc(F)c1Cl [Compound 62] |
| 50 to 250 nM | Cn1ncc2ccc(C(=O)N[C@@H](CCN3CCC[C@@](F)(CCc4ccc5c(n4)NCCC5)C3)C(=O)O)cc21 [Compound 106] |
| < 50 nM | O=C(N[C@@H](CCN1CC[C@@H](CCc2ccc3c(n2)NCCC3)C1)C(=O)O)c1c(Cl)cccc1Cl [Compound 6a, (S)-2-(2,6-dichlorobenzamido)-4-((R)-3-(2-(5,6,7,8-tetrahydro-1,8-naphthyridin-2-yl)ethyl)pyrrolidin-1-yl)butanoic acid] |
| < 50 nM | O=C(O)[C@H](CCN1CC[C@@H](CCc2ccc3c(n2)NCCC3)C1)NC(=O)[C@@H]1CCCN1Cc1cccnc1 [Compound 99] |
| < 50 nM | Cn1ncc2cccc(C(=O)N[C@@H](CCN3CC[C@@H](CCc4ccc5c(n4)NCCC5)C3)C(=O)O)c21 [Compound 28a, (S)-2-(1-methyl-1H-indazole-7-carboxamido)-4-((R)-3-(2-(5,6,7,8-tetrahydro-1,8-naphthyridin-2-yl)ethyl)pyrrolidin-1-yl)butanoic acid] |
| < 50 nM | O=C(N[C@@H](CCN1CC[C@@H](CCc2ccc3c(n2)NCCC3)C1)C(=O)O)C1CCC(F)(F)CC1 [Compound 21a, (S)-2-(4,4-difluorocyclohexane-1-carboxamido)-4-((R)-3-(2-(5,6,7,8-tetrahydro-1,8-naphthyridin-2-yl)ethyl)pyrrolidin-1-yl)butanoic acid] |
| < 50 nM | O=C(N[C@H](CCN1CC[C@@H](CCc2ccc3c(n2)NCCC3)C1)C(=O)O)c1cccc(-c2cscn2)c1 [Compound 85] |
| 250 to 1000 nM | Cc1nn(C)cc1-c1nn(C)c2c(C(=O)N[C@@H](CCN3CC[C@@H](CCc4ccc5c(n4)NCCC5)C3)C(=O)O)cccc12 [Compound 98] |
| < 50 nM | CC(C)n1cc2c(C(=O)N[C@@H](CCN3CC[C@@H](CCc4ccc5c(n4)NCCC5)C3)C(=O)O)cccc2n1 [Compound 71] |
| < 50 nM | COC(=O)N1CCC[C@@H](C(=O)N[C@@H](CCN2CC[C@@H](CCc3ccc4c(n3)NCCC4)C2)C(=O)O)C1 [Compound 80] |
| < 50 nM | CC(C)(C)C(=O)N1CCC[C@@H](C(=O)N[C@@H](CCN2CC[C@@H](CCc3ccc4c(n3)NCCC4)C2)C(=O)O)C1 [Compound 79] |
| 50 to 250 nM | O=C(O)[C@H](CCN1CC[C@@H](CCc2ccc3c(n2)NCCC3)C1)NC(=O)[C@@H]1CCCCN1Cc1ccccc1 [Compound 93] |
| < 50 nM | O=C(O)[C@H](CCN1CC[C@@H](CCc2ccc3c(n2)NCCC3)C1)NC(=O)[C@@H]1CCCN1c1ccccc1 [Compound 43] |
| < 50 nM | N#Cc1cc(Cl)c(C(=O)NC(CCN2CC[C@@H](CCc3ccc4c(n3)NCCC4)C2)C(=O)O)c(Cl)c1 (stereo partly drawn) [7a and 7c] |
| 50 to 250 nM | O=C(N[C@@H](CCN1CC[C@@H](CCc2ccc3c(n2)NCCC3)C1)C(=O)O)c1ccccc1N1CCOCC1 [Compound 14a, (S)-2-(2-morpholinobenzamido)-4-((R)-3-(2-(5,6,7,8-tetrahydro-1,8-naphthyridin-2-yl)ethyl)pyrrolidin-1-yl)butanoic acid] |

| IC50 | SMILES |
| --- | --- |
| 50 to 250 nM | O=C(N[C@@H](CCN1CC[C@@H](CCc2ccc3c(n2)NCCC3)C1)C(=O)O)c1cccc(-c2cscn2)c1 [Compound 65] |
| > 1000 nM | O=C(O)[C@H](CCN1CC(CCc2ccc3c(n2)NCCC3)C1)NC(=O)[C@@H]1CCNC1Cc1ccccc1 (stereo partly drawn) [Compound 143] |
| < 50 nM | CCCCC(=O)N1CCCC[C@H]1C(=O)N[C@@H](CCN1CC[C@@H](CCc2ccc3c(n2)NCCC3)C1)C(=O)O [Compound 73] |
| 250 to 1000 nM | O=C(N[C@@H](CCN1CC[C@@H](OCCc2ccc3c(n2)NCCC3)C1)C(=O)O)C1CCOCC1 [Compound 117] |
| < 50 nM | O=C(N[C@@H](CCN1CC[C@@H](CCc2ccc3c(n2)NCCC3)C1)C(=O)O)c1cccc(F)c1Cl [Compound 5a, (S)-2-(2-chloro-3-fluorobenzamido)-4-((R)-3-(2-(5,6,7,8-tetrahydro-1,8-naphthyridin-2-yl)ethyl)pyrrolidin-1-yl)butanoic acid] |
| < 50 nM | Cn1nc(-c2ccccc2)c2cccc(C(=O)N[C@@H](CCN3CC[C@@H](CCc4ccc5c(n4)NCCC5)C3)C(=O)O)c21 [Compound 82] |
| < 50 nM | CC(C)(C(=O)N[C@@H](CCN1CC[C@@H](CCc2ccc3c(n2)NCCC3)C1)C(=O)O)c1cccnc1 [Compound 37] |
| 50 to 250 nM | O=C(O)[C@H](CCN1CC[C@@H](CCc2ccc3c(n2)NCCC3)C1)NC(=O)[C@@H]1CCCN1CC1CC1 [Compound 91] |
| 250 to 1000 nM | O=C(O)[C@H](CCN1CC[C@@H](OCCc2ccc3c(n2)NCCC3)C1)NC(=O)[C@@H]1CCCN1Cc1ccccc1 [Compound 121] |
| < 50 nM | CC(C)Cn1cc2c(C(=O)N[C@@H](CCN3CC[C@@H](CCc4ccc5c(n4)NCCC5)C3)C(=O)O)cccc2n1 [Compound 72] |
| > 1000 nM | CC(C)(C(=O)N[C@@H](CCN1CC(CCc2ccc3c(n2)NCCC3)C1)C(=O)O)c1ccccc1 [Compound 136] |
| 50 to 250 nM | O=C(N[C@@H](CCN1CCC[C@](F)(CCc2ccc3c(n2)NCCC3)C1)C(=O)O)C1CCC(F)(F)CC1 [Compound 109] |
| < 50 nM | O=C(O)[C@H](CCN1CC[C@@H](CCc2ccc3c(n2)NCCC3)C1)NC(=O)[C@@H]1CCCN1Cc1ccccc1 [Compound 36] |
| < 50 nM | CC(C)n1ncc2c(C(=O)N[C@@H](CCN3CC[C@@H](CCc4ccc5c(n4)NCCC5)C3)C(=O)O)cccc21 [Compound 60] |
| > 1000 nM | CC(=O)N1CCN(CC[C@H](NC(=O)c2ccccc2)C(=O)O)C[C@@H]1CCc1ccc2c(n1)NCCC2 [Compound 116] |
| < 50 nM | O=C(N[C@@H](CCN1CC[C@@H](CCc2ccc3c(n2)NCCC3)C1)C(=O)O)c1cc(OC(F)(F)F)ccc1Cl [Compound 11a] |
| < 50 nM | O=C(O)[C@H](CCN1CC(OCCc2ccc3c(n2)NCCC3)C1)NC(=O)[C@@H]1CCCN1Cc1ccccc1 [Compound 123] |
| < 50 nM | Cn1ncc2ccc(C(=O)N[C@@H](CCN3CC[C@@H](CCc4ccc5c(n4)NCCC5)C3)C(=O)O)cc21 [Compound 24a, (S)-2-(1-methyl-1H-indazole-6-carboxamido)-4-((R)-3-(2-(5,6,7,8-tetrahydro-1,8-naphthyridin-2-yl)ethyl)pyrrolidin-1-yl)butanoic acid] |
| < 50 nM | O=C(O)[C@H](CCN1CC(OCCc2ccc3c(n2)NCCC3)C1)NC(=O)[C@@H]1CCCN1c1ccccc1 [Compound 127] |

| SMILES | IC50 |
| --- | --- |
| O=C(N[C@@H](CCN1C2CCC1C(CCc1ccc3c(n1)NCCC3)C2)C(=O)O)c1cc(F)cc(C(F)(F)F)c1 (stereo partly drawn) [Compound 140] | > 1000 nM |
